These results are taken from patent US8178506B2, “Oligomeric compounds and compositions for use in modulation of small non-coding RNAs” (Regulus Therapeutics Inc., priority 2003, dated 2012).

One data set concerns mir-143 pri-miRNA. Kind of data set: mir-143 pri-miRNA levels in differentiating adipocytes (real-time RT-PCR). It counts as cell-based, human. The conditions noted are these: differentiated adipocytes 9 days vs 3 days post-differentiation. As to the method:
Here, oligomeric compounds targeting mir-143 were transfected into preadipocytes which were then induced to differentiate, in order to assess the effects of these compounds on mir-143 pri-miRNA levels during differentiation. mir-143 pri-miRNA levels were assessed on days 3 and 9 after differentiation.
In addition to the uniform 2′-MOE phosphorothioate oligomeric compound ISIS Number 327901 (SEQ ID NO: 319) targeting mature mir-143, a 5-10-7 gapmer oligomeric compound, ISIS Number 340927 (SEQ ID NO: 319), was designed to target mature mir-143. […] ISIS 342672 and ISIS 342673 are uniform 2′-MOE phosphorothioate oligomeric compounds 22 nucleotides in length. ISIS Number 342677 (SEQ ID NO: 789) and ISIS Number 342678 (SEQ ID NO: 758) are the corresponding 5-10-7 scrambled 2′-MOE gapmer oligomeric compounds. All cytidine residues are 5-methylcytidines. […]
These compounds were transfected into differentiating adipocytes and their effects on levels of the mir-143 pri-miRNA molecule were assessed in pre-adipocytes vs. differentiated adipocytes, by real-time RT-PCR using the primer/probe set specific for the mir-143 pri-miRNA (forward primer=ISIS 339314, SEQ ID NO: 786; reverse primer=ISIS 342897, SEQ ID NO.: 787; probe=ISIS 342898, SEQ ID NO.: 788). […]
Background: Quantitative PCR measures a nucleic acid by following its amplification.

A further data set concerns A549 cells. Description: Cell cycle assay in A549 cells. The class given is cell-based, human. The note with it: A549 cells, 24 hours, relative to the untreated control cells in that phase. As to the method:
In accordance with the present invention, certain oligomeric compounds targeting miRNAs were selected for dose response studies. Using the cell cycle assay described above, the cell cycle profiles of HeLa or A549 cells treated with varying concentrations of oligomeric compounds of the present invention were assessed.
Concomittent decreases in the percentage of cells in G1-phase of the cell cycle and increases in the percentage of hypodiploid (subG1) cells were also observed.
In a further study, A549 cells were treated with 25-, 50-, 100- or 150 nM of the oligomeric compounds ISIS Numbers 338637 (SEQ ID NO: 464) targeted against mir-96, and ISIS 338769 (SEQ ID NO: 596) targeted against mir-130b, ISIS 338836 (SEQ ID NO: 663) targeted against mir-23a, and ISIS 340350 (SEQ ID NO: 855) targeted against mir-95 (Mourelatos). Cells treated with increasing concentrations of oligomeric compounds were compared to untreated cells, to assess the dose-responsiveness of the observed delay or arrest. The random-mer ISIS 29848 was used as a negative control. Cells were prepared for flow cytometry 24-hours after oligonucleotide treatment. Results of these dose response studies are shown in Table 34, where data are expressed as percentage of cells in each phase relative to the untreated control cells in that phase.

With “TGAGCTACAGTGCTTCATCTCA [ISIS 327901] (chemistry not given here) [uniform 2′-MOE PS; targets mir-143]”, the “levels of the mir-143 pri-miRNA” value in the data set with mir-143 pri-miRNA is reported as “approximately 4 fold”.
For “340350 (antisense TGCTCAATAAATACCCGTTGAA; all 2'-MOE, all phosphorothioate, methylation of C not given here) [compound 340350]”, in the data set on A549 cells (25 nM), the “% cells in cell cycle phase: G1” value is 102%, the “% cells in cell cycle phase: G2/M” value stood at 95%, the “% cells in cell cycle phase: S” value worked out at 100% and the “% cells in cell cycle phase: aneuploid” value amounted to 120%. In addition, the “% cells in cell cycle phase: subG1” value in the data set with A549 cells (25 nM) is listed as 91%. Moreover, in the data set with A549 cells (50 nM), the “% cells in cell cycle phase: G1” value is recorded as 128%, the “% cells in cell cycle phase: G2/M” value is 126%, the “% cells in cell cycle phase: S” value is 67% and the “% cells in cell cycle phase: aneuploid” value is 80%. Moreover, the “% cells in cell cycle phase: subG1” value in the data set with A549 cells (50 nM) stood at 158%. Also, in the data set on A549 cells (100 nM), the “% cells in cell cycle phase: G1” value was determined as 125%, the “% cells in cell cycle phase: G2/M” value is 155%, the “% cells in cell cycle phase: S” value is reported as 60% and the “% cells in cell cycle phase: aneuploid” value was determined as 107%. Moreover, the “% cells in cell cycle phase: subG1” value with A549 cells (100 nM) is given as 267%. Besides, in the data set on A549 cells (150 nM), the “% cells in cell cycle phase: G1” value was found to be 128%, the “% cells in cell cycle phase: G2/M” value is 211%, the “% cells in cell cycle phase: S” value is reported as 40% and the “% cells in cell cycle phase: aneuploid” value was 108%. Moreover, the “% cells in cell cycle phase: subG1” value in the data set with A549 cells (150 nM) came out at 402%.
